Drawing on patent publication US20100280021A1, “PYRIDOPYRIMIDINE PROTEIN TYROSINE PHOSPHATASE INHIBITORS” (priority 2005, published 2010), this text covers IC50 for 15 compounds.

This test deals with T1, Human PTP1B (1-321) (Homo sapiens, UniProt P18031).
T1 construct: Human PTP1B (1-321) was cloned from a human cDNA library; made in house; host or cells: E. coli
T1 sequence (P18031 1-321): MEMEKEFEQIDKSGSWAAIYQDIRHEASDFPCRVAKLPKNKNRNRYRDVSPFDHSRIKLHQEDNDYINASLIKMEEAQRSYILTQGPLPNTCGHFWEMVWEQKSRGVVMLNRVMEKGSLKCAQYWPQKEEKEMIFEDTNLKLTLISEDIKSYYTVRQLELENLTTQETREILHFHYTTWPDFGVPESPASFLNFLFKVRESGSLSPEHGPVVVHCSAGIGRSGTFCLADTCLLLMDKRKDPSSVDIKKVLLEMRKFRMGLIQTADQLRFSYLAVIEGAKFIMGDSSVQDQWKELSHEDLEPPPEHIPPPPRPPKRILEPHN
Briefly: In vitro inhibition of PTP1B (PTPase assays: Malachite Green phosphopeptide method or DiFMUP method). The test is classed as biochemical. Conditions: PTP1B inhibitory activity. The method, then:
Human PTP1B (1-321) was cloned from a human cDNA library using conventional molecular biology techniques. The cDNA sequence was identical to the published human PTP1B sequence (Accession number M33689). The protein was expressed and purified from E. coli as described by Barford D. et. al J. Mol. Biol (1994) 239, 726-730.
The measurement of PTPase activity was carried out using one of two methods:
The first method for the measurement of PTP1B inhibitory activity a tyrosine phosphorylated peptide based on the amino acid sequence of insulin receptor tyrosine autophosphorylation site 1146 (TRDI(pY)E) was used as substrate. The reaction conditions were as follows:
PTP1B (0.5-2 nM) was incubated with compound for 15 min in buffer containing 37.5 mM Bis-Tris buffer pH 6.2, 140 mMNaCl, 0.05% BSA and 2 mM DTT. The reaction was started by the addition of 50 μM substrate. After 20 min at room temperature (22-25° C.), the reaction was stopped with KOH and the amount of free phosphate measured using Malachite Green as previously described (Harder et al. 1994 Biochem J. 298; 395).
The second method was used for the measurement of general PTPase inhibitory activity across a panel of PTPases the substrate (6,8-difluoro-4-methylumbelliferyl phosphate (DiFMUP; from Molecular Probes) was used at the Km for each enzyme. The buffer conditions were identical as in the Malachite Green assay. The reaction was stopped with KOH. In this case the dephosphoryated product becomes fluorescent and the fluorescense read (Excitiation: […]/Emmission: 460 nM).
The following Table lists IC50 results for several of the above exemplified compounds: […]

Consider `CNc1nc(N)nc2nc(-c3c(F)cccc3N3CCOCC3)ccc12` [Example 92, 7-(2-Fluoro-6-morpholino-4-yl-phenyl)-N4-methyl-pyrido[2,3-d]pyrimidine-2,4-diamine], for which the concentration for half-maximal inhibition (IC50) came out at 2330 nM.
Compound `CNc1nc(N)nc2nc(-c3c(N4CCN(C(=O)c5ccco5)CC4)cccc3C(F)(F)F)ccc12` [Example 116, {4-[2-(2-Amino-4-methylamino-pyrido[2,3-d]pyrimidin-7-yl)-3-trifluoromethyl-phenyl]-piperazin-1-yl}-furan-2-yl-methanone] registered an IC50 of 300 nM.
On to `CNc1nc(N)nc2nc(C3(c4ccccc4)CCCCC3)ccc12` [Example 59, N4-Methyl-7-(1-phenyl-cyclohexyl)-pyrido[2,3-d]pyrimidine-2,4-diamine], for which the half-inhibitory concentration (IC50) worked out at 10800 nM.
As for `CNc1nc(N)nc2nc(-c3c(Oc4ccccc4)cccc3C(F)(F)F)ccc12` [Example 80, N4-Methyl-7-(2-phenoxy-6-trifluoromethyl-phenyl)-pyrido[2,3-d]pyrimidine-2,4-diamine], it took 170 nM to reach half-maximal inhibition (IC50). This IC50 is about 64-fold lower than that of the compound before.
In turn, `CNc1nc(N)nc2nc(-c3cccs3)ccc12` [Example 13, N4-Methyl-7-thiophen-2-yl-pyrido[2,3-d]pyrimidine-2,4-diamine] yielded an IC50 of 3570 nM.
On to `CNc1nc(N)nc2nc(-c3ccccc3C)ccc12` [Example 1, N4-Methyl-7-o-tolyl-pyrido[2,3-d]pyrimidine-2,4-diamine], for which the IC50 came out at 1660 nM.
Under `CNc1nc(N)nc2nc(-c3c(Cl)cccc3Cl)ccc12` [Example 3, 7-(2,6-Dichloro-phenyl)-N4-methyl-pyrido[2,3-d]pyrimidine-2,4-diamine] stands 510 nM.
`CNc1nc(N)nc2nc(C3CCCCC3)ccc12` [Example 9, 7-Cyclohexyl-N4-methyl-pyrido[2,3-d]pyrimidine-2,4-diamine]: the IC50 stood at 1410 nM.
Under `CNc1nc(N)nc2nc(-c3c(N4C(C)CCC4C)cccc3C(F)(F)F)ccc12` (stereo not drawn) [Example 107, 7-[2-(2,5-Dimethyl-pyrrolidin-1-yl)-6-trifluoromethyl-phenyl]-N4-methyl-pyrido[2,3-d]pyrimidine-2,4-diamine] stands 800 nM; under `CNc1nc(N)nc2nc(-c3ccccc3C(F)(F)F)c(C(=O)O)cc12` [Example 56, 2-Amino-4-methylamino-7-(2-trifluoromethyl-phenyl)-pyrido[2,3-d]pyrimidine-6-carboxylic acid], 250 nM; under `CNc1nc(N)nc2nc(-c3ccccc3)cc(-c3ccccc3)c12` [Example 139, N*4*-Methyl-5,7-diphenyl-pyrido[2,3-d]pyrimidine-2,4-diamine], 52400 nM.
To `CNc1nc(N)nc2nc3c(cc12)CCc1ccccc1-3` [Example 27, N8-Methyl-5,6-dihydro-benzo[h]pyrimido[4,5-b]quinoline-8,10-diamine] belongs 4220 nM; to `CNc1nc(N)nc2nc(-c3ccccc3)c(-c3ccccc3)cc12` [Example 14, N4-Methyl-6,7-diphenyl-pyrido[2,3-d]pyrimidine-2,4-diamine], 2560 nM; to `CNc1nc(N)nc2nc(-c3cccc4ccccc34)ccc12` [Example 28, N4-Methyl-7-naphthalen-1-yl-pyrido[2,3-d]pyrimidine-2,4-diamine], 1150 nM.
To `CNc1nc(N)nc2nc(-c3c(N4CCC(Cc5ccccc5)CC4)cccc3C(F)(F)F)ccc12` [Example 121, 7-[2-(4-Benzyl-piperidin-1-yl)-6-trifluoromethyl-phenyl]-N4-methyl-pyrido[2,3-d]pyrimidine-2,4-diamine] belongs 2050 nM.
